pIC50: −log10 of the molar value.

The target of the first assay is human HPK1 (MAP4K1) (Homo sapiens (Human), UniProt Q92918). Nature of the assay: HPK1 IC50 Assay (TR-FRET peptide phosphorylation). Particulars: 0.15 nM HPK1, 10 μM ATP, 1 μM STK S1 peptide substrate; geometric mean. In kind it is biochemical. Here is the method: The enzymatic activity of human HPK1 (MAP4K1) was monitored in a biochemical assay in the presence or absence of compounds and using a synthetic peptide substrate. An increase in phosphorylation of the peptide by HPK1 was indicative of its kinase activity.
Chain of human HPK1 (MAP4K1) (Q92918 17-274): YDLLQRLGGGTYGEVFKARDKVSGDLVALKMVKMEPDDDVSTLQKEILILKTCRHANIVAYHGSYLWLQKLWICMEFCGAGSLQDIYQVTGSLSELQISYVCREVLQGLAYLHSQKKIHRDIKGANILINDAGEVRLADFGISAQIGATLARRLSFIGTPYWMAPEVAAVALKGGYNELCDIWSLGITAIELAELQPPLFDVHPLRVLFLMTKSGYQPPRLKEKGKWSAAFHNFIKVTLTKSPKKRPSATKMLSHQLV
Recombinant HPK1 kinase domain produced via baculovirus infection of insect cells was obtained from Proteros (Proteros Biostructures #PR-0322) and was pre-activated in the presence of 2 mM ATP (Sigma-Aldrich, cat #GE27-2056-01) and 2 mM magnesium chloride for 16 hours at 4° C. The protein reaction mixture was then loaded to a desalting column (Thermo Fisher Scientific, Cat #89889) to remove excess ATP. HPK1 was eluted with buffer containing 20 mM Tris (2-Amino-2-(hydroxymethyl)propane-1,3-diol) pH 8.0, 150 mM NaCl, 2 mM dithiothreitol and 5% glycerol, and was frozen at −80° C. for later use. HPK1 dual phosphorylation was confirmed by mass spectrometry.
Ten nanoliters of test compounds dissolved in DMSO at various concentrations were dispensed into a 384-well ProxiPlate (PerkinElmer #6008289). Five microliters of a solution of recombinant HPK1 diluted in HPK1 kinase assay buffer (50 mM BES [N,N-Bis(2-hydroxyethyl)-2-aminoethanesulfonic acid], pH 7.0; 10 mM magnesium chloride; 0.01% Triton X-100; 1 mM dithiothreitol; 0.01% bovine serum albumin; 0.1 mM sodium orthovanadate) was added to the compound-containing plate and was incubated for 15 minutes at 25° C. Five microliters of a mixture of ATP (Sigma-Aldrich #A6559) and peptide substrate STK S1 (Cisbio #61ST1BLC) diluted in HPK1 kinase assay buffer was then added to start the reaction. Final concentrations were 0.15 nM for HPK1, 10 μM for ATP, and 1 μM for the STK S1 peptide substrate. The reaction mixture was incubated at 25° C. for 3 hours and was stopped with the addition of 10 μl of an EDTA (Ethylenediaminetetraacetic acid)-containing detection buffer (Cisbio #62SDBRDF) supplemented with Europium cryptate-labeled anti-phospho-serine/threonine antibodies (Cisbio #62ST1PEJ) and XL665-labeled streptavidin (Cisbio #610SAXLG). The mixture was incubated for 16 hours at room temperature and peptide phosphorylation was measured by time-resolved fluorescence energy transfer (665 nm/620 nm) on an Envision plate reader (PerkinElmer).
Data in Table 1 were normalized based on positive (staurosporine) and negative (DMSO) controls. Least squares curve fittings were performed using a four-parameter variable slope nonlinear regression model. IC50 is defined as the concentration of compound required to inhibit 50% of maximum phosphorylation. IC50 values from multiple experiments were averaged by geometric mean and the standard deviation was calculated.
On the technique in general: In TR-FRET formats the signal depends on donor and acceptor labels being close together.
Compound `Cc1c(C(=O)NCC(F)F)cc(Nc2nc(-c3cnc4c(c3)N([C@H]3C[C@@](C)(N5CCCC6(CC6)C5)C3)C(=O)C4(C)C)cc3ncn(C(C)C)c23)c(F)c1F` [Example 284, N-(2,2-difluoroethyl)-5-((6-(3,3-dimethyl-1-((1s,3s)-3-methyl-3-(5-azaspiro[2.5]octan-5-yl)cyclobutyl)-2-oxo-2,3-dihydro-1H-pyrrolo[3,2-b]pyridin-6-yl)-3-isopropyl-3H-imidazo[4,5-c]pyridin-4-yl)amino)-3,4-difluoro-2-methylbenzamide] showed a pIC50 of 10.00. On the same count and under the same terms, as for `CC(C)n1cnc2cc(-c3cc4c(nc3F)C(C)(C)C(=O)N4[C@H]3C[C@@](C)(N4CCCCC4)C3)nc(Nc3cc(C(=O)NC4(C(F)F)CC4)c(Cl)c(F)c3F)c21` [Example 291, 2-chloro-N-(1-(difluoromethyl)cyclopropyl)-3,4-difluoro-5-((6-(5-fluoro-3,3-dimethyl-1-((1s,3s)-3-methyl-3-(piperidin-1-yl)cyclobutyl)-2-oxo-2,3-dihydro-1H-pyrrolo[3,2-b]pyridin-6-yl)-3-isopropyl-3H-imidazo[4,5-c]pyridin-4-yl)amino)benzamide], the figure is 10.10.

Staying with this assay, now noted: recombinant HPK1 kinase domain 0.15 nM, 10 μM ATP, 1 μM STK S1 peptide; geometric mean of multiple experiments.
For the compound `CC(=O)N1CCC2(CC1)C(=O)N([C@H]1C[C@@H](N3CCCCC3)C1)c1cc(-c3cc4ncn(C(C)C)c4c(Nc4cc(C(=O)NCC(C)C)c(C)cc4F)n3)ccc12` [Example 75], the pIC50 is 9.70. As to `Cc1cc(F)c(Nc2nc(-c3cnc4c(c3)N([C@H]3C[C@@H](N5CCCCC5)C3)C(=O)C4(C)C)cc3ncn(C(C)C)c23)cc1C(=O)NC1(CF)CC1` [Example 134], the pIC50 is 9.52. `Cc1c(C(=O)NC2(C(F)F)CC2)cc(Nc2nc(-c3cnc4c(c3)N([C@H]3C[C@@](C)(N5CCOC6(CC6)C5)C3)C(=O)C4(C)C)cc3ncn(C(C)C)c23)c(F)c1F` [Example 193, N-(1-(Difluoromethyl)cyclopropyl)-5-((6-(3,3-dimethyl-1-((1s,3s)-3-methyl-3-(4-oxa-7-azaspiro[2.5]octan-7-yl)cyclobutyl)-2-oxo-2,3-dihydro-1H-pyrrolo[3,2-b]pyridin-6-yl)-3-isopropyl-3H-imidazo[4,5-c]pyridin-4-yl)amino)-3,4-difluoro-2-methylbenzamide]: the pIC50 is 9.70.

As to `CNC(=O)c1cc(Nc2nc(-c3ccc4c(c3)N([C@H]3C[C@@H](N5CCCCC5)C3)C(=O)C43CCN(C(C)=O)CC3)cc3ncn(C4CC4)c23)c(F)cc1C` [Example 95], the pIC50 was 9.52. For `CC(C)n1cnc2cc(-c3cnc4c(c3)N([C@H]3C[C@@](C)(N5CCCCC5)C3)C(=O)C43CCOCC3)nc(Nc3cc(C(=O)NC4(C(F)F)CC4)c(Cl)c(F)c3F)c21` [Example 210, 2-Chloro-N-(1-(difluoromethyl)cyclopropyl)-3,4-difluoro-5-((3-isopropyl-6-(1′-((1s,3s)-3-methyl-3-(piperidin-1-yl)cyclobutyl)-2′-oxo-1′,2,2′,3,5,6-hexahydrospiro[pyran-4,3′-pyrrolo[3,2-b]pyridin]-6′-yl)-3H-imidazo[4,5-c]pyridin-4-yl)amino)benzamide], the pIC50 is 10.10. On to `Cc1c(C(=O)NC2(C(F)F)CC2)cc(Nc2nc(-c3cnc4c(c3)N([C@H]3C[C@@](C)(N5CCCCCC5)C3)C(=O)C4(C)C)cc3ncn(C(C)C)c23)c(F)c1F` [Example 229, 5-((6-(1-((1s,3s)-3-(Azepan-1-yl)-3-methylcyclobutyl)-3,3-dimethyl-2-oxo-2,3-dihydro-1H-pyrrolo[3,2-b]pyridin-6-yl)-3-isopropyl-3H-imidazo[4,5-c]pyridin-4-yl)amino)-N-(1-(difluoromethyl)cyclopropyl)-3,4-difluoro-2-methylbenzamide], for which the pIC50 was 10.10.

`Cc1c(C(=O)NC2(C(F)F)CC2)cc(Nc2nc(-c3cnc4c(c3)N([C@H]3C[C@@H](N5CCCCC5)C3)C(=O)C4(C)C)cc3ncn(C(C)C)c23)c(F)c1F` [Example 246, N-(1-(difluoromethyl)cyclopropyl)-5-((6-(3,3-dimethyl-2-oxo-1-((1s,3s)-3-(piperidin-1-yl)cyclobutyl)-2,3-dihydro-1H-pyrrolo[3,2-b]pyridin-6-yl)-3-isopropyl-3H-imidazo[4,5-c]pyridin-4-yl)amino)-3,4-difluoro-2-methylbenzamide]: the pIC50 is 10.40. The same measure, in the same setting: as for `CCNC(=O)c1cc(Nc2nc(-c3ccc4c(c3)N([C@H]3C[C@@H](N5CCCCC5)C3)C(=O)C43CCN(C4COC4)CC3)cc3ncn(C(C)C)c23)c(F)cc1C` [Example 69], the figure is 10.00. Same read-out and setting: the result for `CNC(=O)c1cc(Nc2nc(-c3ccc4c(c3)N([C@H]3C[C@@H](N5CCCCC5)C3)C(=O)C43CCN(C(=O)C4(C)CC4)CC3)cc3ncn(C(C)C)c23)ccc1C` [Example 152, 5-((3-isopropyl-6-(1′-(1-methylcyclopropane-1-carbonyl)-2-oxo-1-((1s,3s)-3-(piperidin-1-yl)cyclobutyl)spiro[indoline-3,4′-piperidin]-6-yl)-3H-imidazo[4,5-c]pyridin-4-yl)amino)-N,2-dimethylbenzamide] reads 9.70; that for `CCC(=O)N1CCC2(CC1)C(=O)N([C@H]1C[C@@H](N3CCCCC3)C1)c1cc(-c3cc4ncn(C(C)C)c4c(Nc4cc(C(=O)NC(C)C)c(C)cc4F)n3)ccc12` [Example 53], 10.10. On to `CC(C)n1cnc2cc(-c3cnc4c(c3)N(C3CC(C)(N5CCC6C[C@@H]6C5)C3)C(=O)C4(C)C)nc(Nc3cc(C(=O)NC4(C(F)F)CC4)c(Cl)c(F)c3F)c21` (stereo partly shown) [Example 261, 5-((6-(1-((1s,3s)-3-(3-azabicyclo[4.1.0]heptan-3-yl)-3-methylcyclobutyl)-3,3-dimethyl-2-oxo-2,3-dihydro-1H-pyrrolo[3,2-b]pyridin-6-yl)-3-isopropyl-3H-imidazo[4,5-c]pyridin-4-yl)amino)-2-chloro-N-(1-(difluoromethyl)cyclopropyl)-3,4-difluorobenzamide], for which the pIC50 is 10.05. Take `CC(C)n1cnc2cc(-c3cnc4c(c3)N([C@H]3C[C@@](C)(N5CCOCC5)C3)C(=O)C4(C)C)nc(Nc3cc(C(=O)NC4(C(F)F)CC4)c(Cl)c(F)c3F)c21` [Example 199, 2-Chloro-N-(1-(difluoromethyl)cyclopropyl)-5-((6-(3,3-dimethyl-1-((1s,3s)-3-methyl-3-morpholinocyclobutyl)-2-oxo-2,3-dihydro-1H-pyrrolo[3,2-b]pyridin-6-yl)-3-isopropyl-3H-imidazo[4,5-c]pyridin-4-yl)amino)-3,4-difluorobenzamide]: the pIC50 was 10.00. On the same count and under the same terms, as for `Cc1ccc(Nc2nc(-c3ccc4c(c3)N([C@H]3C[C@@H](N5CCC[C@@H](F)C5)C3)C(=O)C4(C)C)cc3ncn(C4CC4)c23)cc1C(N)=O` [Example 17], the figure is 10.40. Regarding `CNC(=O)c1cc(Nc2nc(-c3ccc4c(c3)N([C@H]3C[C@@H](N5CCCC6(C5)CC6(F)F)C3)C(=O)C43CCN(C(C)=O)CC3)cc3ncn(C4CC4)c23)ccc1C` (stereo partly shown) [Example 163], the pIC50 was 10.00. On to `CNC(=O)c1cc(Nc2nc(-c3ccc4c(c3)N([C@H]3C[C@@H](N5CCC[C@@H](F)C5)C3)C(=O)C4(C)C)cc3ncn(C(C)C)c23)ccc1C` [Example 106], for which the pIC50 was 10.15. In the case of `CNC(=O)c1cc(Nc2nc(-c3ccc4c(c3)N([C@H]3C[C@@H](N5CCCCC5)C3)C(=O)C43CN(C(C)=O)C3)cc3ncn(C(C)C)c23)c(F)cc1C` [Example 177], the pIC50 is 9.40. Consider `CNC(=O)c1cc(Nc2nc(-c3ccc4c(c3)N([C@H]3C[C@@H](N5CC(C)(C)C5)C3)C(=O)C4(C)C)cc3ncn(C(C)C)c23)c(F)cc1C` [Example 120], for which the pIC50 is 9.70.

Broadly, the pIC50 is the IC50 on a negative log10 scale, so that one unit is a factor of ten.

The values are drawn from patent publication US11203591B2, “Substituted 6-azabenzimidazole compounds” (Gilead Sciences, Inc., priority 2018, dated 2021).
